# Data reported in patent US9457033B2, “Steroid alkaloids and uses thereof as antimicrobial agents against electron transport-deficient microbes and as potentiators for antimicrobial agents against pathogenic bacteria” (priority 2011, dated 2016).
# Where two headings read alike, the source gives them in different places.
# What was measured:
# [1] = test system: S. aureus ATCC 43300; assay: MIC, microdilution in CAMHB 24 h; type: cell-based, Staphylococcus aureus; conditions: ATCC 43300; for MIC: Staphylococcus aureus
# [2] = test system: S. aureus Newbould; assay: MIC, microdilution in CAMHB 24 h; type: cell-based, Staphylococcus aureus; conditions: Newbould; for MIC: Staphylococcus aureus
# [3] = test system: S. aureus ATCC 29213; assay: Checkerboard assay, aminoglycoside and tomatidine; type: cell-based, Staphylococcus aureus; conditions: for MIC: Staphylococcus aureus, ATCC29213, checkerboard
# [4] = test system: S. aureus Newman; assay: MIC, microdilution in CAMHB 24 h; type: cell-based, Staphylococcus aureus; conditions: Newman; for MIC: Staphylococcus aureus
# [5] = test system: S. aureus CF1A-L; assay: MIC, microdilution in CAMHB 24 h; type: cell-based, Staphylococcus aureus; conditions: CF1A-L; for MIC: Staphylococcus aureus, CF1AL
# [6] = test system: S. aureus SHY97-3906; assay: MIC, microdilution in CAMHB 24 h; type: cell-based, Staphylococcus aureus; conditions: for MIC: Staphylococcus aureus, SHY973906
# [7] = test system: S. aureus MRSA COL; assay: MIC, microdilution in CAMHB 24 h; type: cell-based, Staphylococcus aureus; conditions: MRSA COL; for MIC: Staphylococcus aureus
# [8] = test system: S. aureus ATCC 29213; assay: Time-kill experiments, aminoglycoside alone or with tomatidine (FIGS. 8-10); conditions: alone at ≧1×MIC (1 μg/ml); regrowth observed within 24 h; FIG. 9
# [9] = test system: S. aureus CF7A-L; assay: MIC, microdilution in CAMHB 24 h; type: cell-based, Staphylococcus aureus; conditions: CF7A-L; for MIC: Staphylococcus aureus
# [10] = test system: S. aureus N315; assay: microbe, parasite or virus in culture; type: cell-based, Staphylococcus aureus; conditions: for MIC: Staphylococcus aureus
# [11] = test system: S. aureus CF35A-L; assay: MIC, microdilution in CAMHB 24 h; type: cell-based, Staphylococcus aureus; conditions: CF35A-L; for MIC: Staphylococcus aureus
# [12] = test system: S. aureus CF07-L; assay: MIC, microdilution in CAMHB 24 h; type: cell-based, Staphylococcus aureus; conditions: CF07-L; for MIC: Staphylococcus aureus, CF07L
# [13] = test system: S. aureus CF4B-L; assay: MIC, microdilution in CAMHB 24 h; type: cell-based, Staphylococcus aureus; conditions: CF4B-L; for MIC: Staphylococcus aureus, CF4BL
# [14] = test system: S. aureus ATCC 29213; assay: MIC, microdilution in CAMHB 24 h, with or without tomatidine/compound; type: cell-based, Staphylococcus aureus; conditions: for MIC: Staphylococcus aureus
# [15] = test system: S. aureus CF6B-L; assay: MIC, microdilution in CAMHB 24 h; type: cell-based, Staphylococcus aureus; conditions: CF6B-L; for MIC: Staphylococcus aureus, CF6BL
# [16] = test system: S. aureus CF8E-L; assay: MIC, microdilution in CAMHB 24 h; type: cell-based, Staphylococcus aureus; conditions: CF8E-L; for MIC: Staphylococcus aureus, CF8EL
# [17] = test system: S. aureus CF9A-L; assay: MIC, microdilution in CAMHB 24 h; type: cell-based, Staphylococcus aureus; conditions: CF9A-L; for MIC: Staphylococcus aureus
# [18] = test system: S. aureus Sa220c; assay: MIC, microdilution in CAMHB 24 h; type: cell-based, Staphylococcus aureus; conditions: Sa220c; for MIC: Staphylococcus aureus
# [19] = test system: S. aureus 8325-4; assay: MIC, microdilution in CAMHB 24 h; type: cell-based, Staphylococcus aureus; conditions: 8325-4; for MIC: Staphylococcus aureus, 83254
# [20] = 8 μg/ml of tomatidine, read-out: MIC +TO
# [21] = absence of tomatidine, read-out: MIC −TO
# [22] = Human (CF lungs), read-out: MIC
# [23] = Human (CF lungs), MRSA, read-out: MIC
structure (smiles),measurement,setting,value
"NC[C@H]1O[C@H](O[C@H]2[C@H](O)[C@@H](O[C@H]3O[C@H](CO)[C@@H](O)[C@H](N)[C@H]3O)[C@H](N)C[C@@H]2N)[C@H](N)C[C@@H]1O [Tobramycin, tobramycin]",Fold (−TO/+TO),[1]; 8 μg/ml of tomatidine,4-8 fold
same,MIC,"[1]; ATCC 43300 / MRSA, Human (HA), MRSA, read-out: MIC",512 to 1020 µg/mL
same,MIC,"[1]; ATCC43300, 8 μg/ml of tomatidine, read-out: MIC +TO",128 µg/mL
same,MIC,"[1]; ATCC43300, absence of tomatidine, read-out: MIC −TO",512 to 1020 µg/mL
same,Fold (−TO/+TO),[2]; 8 μg/ml of tomatidine,8 fold
same,MIC,[2]; [20],0.06 to 0.12 µg/mL
same,MIC,"[2]; Cow (mastitis), read-out: MIC",0.5 to 1 µg/mL
same,MIC,[2]; [21],0.5 to 1 µg/mL
same,MIC,[3]; tomatidine 0 μg/ml,0.25 to 0.5 µg/mL
same,MIC,[3]; tomatidine 0.06 μg/ml,0.25 µg/mL
same,MIC,[3]; tomatidine 0.12 μg/ml,0.03 to 0.12 µg/mL
same,MIC,[3]; tomatidine 0.25 μg/ml,0.03 to 0.06 µg/mL
same,MIC,[3]; tomatidine 0.5 μg/ml,0.03 µg/mL
same,MIC,[3]; tomatidine 1 μg/ml,0.03 to 0.06 µg/mL
same,MIC,[3]; tomatidine 2 μg/ml,0.03 to 0.06 µg/mL
same,MIC,[3]; tomatidine 4 μg/ml,0.03 to 0.06 µg/mL
same,MIC,[3]; tomatidine 8 μg/ml,0.06 µg/mL
same,FIC index,"[3]; aminoglycoside with tomatidine, tomatidine MIC considered 32 μg/ml, values overestimated",≦0.133
same,Fold (−TO/+TO),[4]; 8 μg/ml of tomatidine,2-8 fold
same,MIC,[4]; [20],0.06 to 0.12 µg/mL
same,MIC,"[4]; Human (Osteo), read-out: MIC",0.25 to 0.5 µg/mL
same,MIC,[4]; [21],0.25 to 0.5 µg/mL
same,Fold (−TO/+TO),[5]; 8 μg/ml of tomatidine,4-16 fold
same,MIC,[5]; [20],0.06 to 0.25 µg/mL
same,MIC,[5]; [22],1 µg/mL
same,MIC,[5]; [21],1 µg/mL
same,Fold (−TO/+TO),"[6]; SHY-3906, 8 μg/ml of tomatidine",8 fold
same,MIC,"[6]; SHY97-3906, Cow (mastitis), read-out: MIC",0.25 µg/mL
same,MIC,"[6]; SHY-3906, 8 μg/ml of tomatidine, read-out: MIC +TO",0.03 µg/mL
same,MIC,"[6]; SHY-3906, absence of tomatidine, read-out: MIC −TO",0.25 µg/mL
same,Fold (−TO/+TO),[7]; 8 μg/ml of tomatidine,8-16 fold
same,MIC,[7]; [20],0.06 µg/mL
same,MIC,"[7]; Human (SSTI), read-out: MIC",0.5 to 1 µg/mL
same,MIC,[7]; [21],0.5 to 1 µg/mL
same,time-kill activity alone,[8],bactericidal
same,Fold (−TO/+TO),[9]; 8 μg/ml of tomatidine,2-8 fold
same,MIC,"[9]; CF7AL, ant(4′)-Ia, 8 μg/ml of tomatidine, read-out: MIC +TO",128 to 512 µg/mL
same,MIC,"[9]; CF7AL, ant(4′)-Ia, absence of tomatidine, read-out: MIC −TO",1020 µg/mL
same,MIC,[9]; [23],1020 µg/mL
same,Fold (−TO/+TO),"[10]; N315, 8 μg/ml of tomatidine",2-4 fold
same,MIC,[10]; MRSA,512 µg/mL
same,MIC,"[10]; N315, read-out: MIC +TO",128 to 256 µg/mL
same,MIC,"[10]; N315, read-out: MIC −TO",512 µg/mL
same,Fold (−TO/+TO),[11]; 8 μg/ml of tomatidine,8-16 fold
same,MIC,"[11]; CF35AL, 8 μg/ml of tomatidine, read-out: MIC +TO",0.06 µg/mL
same,MIC,"[11]; CF35AL, absence of tomatidine, read-out: MIC −TO",0.5 to 1 µg/mL
same,MIC,[11]; [23],0.5 to 1 µg/mL
same,Fold (−TO/+TO),[12]; 8 μg/ml of tomatidine,4-8 fold
same,MIC,[12]; [20],0.06 to 0.12 µg/mL
same,MIC,[12]; [22],0.5 to 1 µg/mL
same,MIC,[12]; [21],0.5 to 1 µg/mL
same,Fold (−TO/+TO),[13]; 8 μg/ml of tomatidine,4-16 fold
same,MIC,[13]; [20],0.06 to 0.12 µg/mL
same,MIC,[13]; [22],0.5 to 1 µg/mL
same,MIC,[13]; [21],0.5 to 1 µg/mL
same,Fold (−TO/+TO),"[14]; ATCC 29123, 8 μg/ml of tomatidine",4-16 fold
same,Fold (−TO/+TO),"[14]; ATCC 29213, tomatidine at 8 μg/ml",4-8 fold
same,MIC,"[14]; ATCC 29123 / ATCC 29213, ATCC 29123, 8 μg/ml of tomatidine, read-out: MIC +TO",0.03 to 0.06 µg/mL
same,MIC,"[14]; ATCC 29123 / ATCC 29213, ATCC 29123, absence of tomatidine, read-out: MIC −TO",0.25 to 0.5 µg/mL
same,MIC,"[14]; ATCC29213, ATCC 29213, Human (SSTI), read-out: MIC",0.25 to 0.5 µg/mL
same,MIC,"[14]; ATCC29213, ATCC 29213, absence of tomatidine, read-out: MIC −TO",0.25 to 0.5 µg/mL
same,MIC,"[14]; ATCC29213, ATCC 29213, presence of tomatidine at 8 μg/ml, read-out: MIC +TO",0.06 µg/mL
same,Fold (−TO/+TO),[15]; 8 μg/ml of tomatidine,4-16 fold
same,MIC,"[15]; aac(6′)-aph(2″), 8 μg/ml of tomatidine, read-out: MIC +TO",16 to 64 µg/mL
same,MIC,"[15]; aac(6′)-aph(2″), absence of tomatidine, read-out: MIC −TO",256 µg/mL
same,MIC,[15]; [22],256 µg/mL
same,Fold (−TO/+TO),[16]; 8 μg/ml of tomatidine,4 fold
same,MIC,[16]; [20],0.25 µg/mL
same,MIC,[16]; [22],1 µg/mL
same,MIC,[16]; [21],1 µg/mL
same,Fold (−TO/+TO),[17]; 8 μg/ml of tomatidine,4-8 fold
same,MIC,"[17]; CF9AL, ant(4′)-Ia, 8 μg/ml of tomatidine, read-out: MIC +TO",64 to 256 µg/mL
same,MIC,"[17]; CF9AL, ant(4′)-Ia, absence of tomatidine, read-out: MIC −TO",512 to 1020 µg/mL
same,MIC,[17]; [23],512 to 1020 µg/mL
same,Fold (−TO/+TO),[18]; 8 μg/ml of tomatidine,4-16 fold
same,MIC,[18]; [20],0.06 to 0.12 µg/mL
same,MIC,"[18]; Human (SSTI), MRSA, read-out: MIC",0.5 to 1 µg/mL
same,MIC,[18]; [21],0.5 to 1 µg/mL
same,Fold (−TO/+TO),[19]; 8 μg/ml of tomatidine,4 fold
same,MIC,[19]; [20],0.03 to 0.06 µg/mL
same,MIC,"[19]; Laboratory strain, read-out: MIC",0.12 to 0.25 µg/mL
same,MIC,[19]; [21],0.12 to 0.25 µg/mL
